Test results from US9896440B2, “Aryl substituted heterocyclyl sulfones” (GRÜNENTHAL GMBH, priority 2014, dated 2018).

These compounds were tested against T1, Human CaV2.2 channels (Homo sapiens, UniProt Q00975) (assay: Fluorescence assay for CaV2.2 channels using potassium depolarization to induce channel opening (FLIPR, Fluo 4)). Conditions: 3 μM test compound, 30 mM KCl assay buffer (inactivated channel state), HEK293 cells.
T1 construct: expressed in transfected cells; Kir2.3 also stably co-expressed
T1 sequence (Q00975 whole entry): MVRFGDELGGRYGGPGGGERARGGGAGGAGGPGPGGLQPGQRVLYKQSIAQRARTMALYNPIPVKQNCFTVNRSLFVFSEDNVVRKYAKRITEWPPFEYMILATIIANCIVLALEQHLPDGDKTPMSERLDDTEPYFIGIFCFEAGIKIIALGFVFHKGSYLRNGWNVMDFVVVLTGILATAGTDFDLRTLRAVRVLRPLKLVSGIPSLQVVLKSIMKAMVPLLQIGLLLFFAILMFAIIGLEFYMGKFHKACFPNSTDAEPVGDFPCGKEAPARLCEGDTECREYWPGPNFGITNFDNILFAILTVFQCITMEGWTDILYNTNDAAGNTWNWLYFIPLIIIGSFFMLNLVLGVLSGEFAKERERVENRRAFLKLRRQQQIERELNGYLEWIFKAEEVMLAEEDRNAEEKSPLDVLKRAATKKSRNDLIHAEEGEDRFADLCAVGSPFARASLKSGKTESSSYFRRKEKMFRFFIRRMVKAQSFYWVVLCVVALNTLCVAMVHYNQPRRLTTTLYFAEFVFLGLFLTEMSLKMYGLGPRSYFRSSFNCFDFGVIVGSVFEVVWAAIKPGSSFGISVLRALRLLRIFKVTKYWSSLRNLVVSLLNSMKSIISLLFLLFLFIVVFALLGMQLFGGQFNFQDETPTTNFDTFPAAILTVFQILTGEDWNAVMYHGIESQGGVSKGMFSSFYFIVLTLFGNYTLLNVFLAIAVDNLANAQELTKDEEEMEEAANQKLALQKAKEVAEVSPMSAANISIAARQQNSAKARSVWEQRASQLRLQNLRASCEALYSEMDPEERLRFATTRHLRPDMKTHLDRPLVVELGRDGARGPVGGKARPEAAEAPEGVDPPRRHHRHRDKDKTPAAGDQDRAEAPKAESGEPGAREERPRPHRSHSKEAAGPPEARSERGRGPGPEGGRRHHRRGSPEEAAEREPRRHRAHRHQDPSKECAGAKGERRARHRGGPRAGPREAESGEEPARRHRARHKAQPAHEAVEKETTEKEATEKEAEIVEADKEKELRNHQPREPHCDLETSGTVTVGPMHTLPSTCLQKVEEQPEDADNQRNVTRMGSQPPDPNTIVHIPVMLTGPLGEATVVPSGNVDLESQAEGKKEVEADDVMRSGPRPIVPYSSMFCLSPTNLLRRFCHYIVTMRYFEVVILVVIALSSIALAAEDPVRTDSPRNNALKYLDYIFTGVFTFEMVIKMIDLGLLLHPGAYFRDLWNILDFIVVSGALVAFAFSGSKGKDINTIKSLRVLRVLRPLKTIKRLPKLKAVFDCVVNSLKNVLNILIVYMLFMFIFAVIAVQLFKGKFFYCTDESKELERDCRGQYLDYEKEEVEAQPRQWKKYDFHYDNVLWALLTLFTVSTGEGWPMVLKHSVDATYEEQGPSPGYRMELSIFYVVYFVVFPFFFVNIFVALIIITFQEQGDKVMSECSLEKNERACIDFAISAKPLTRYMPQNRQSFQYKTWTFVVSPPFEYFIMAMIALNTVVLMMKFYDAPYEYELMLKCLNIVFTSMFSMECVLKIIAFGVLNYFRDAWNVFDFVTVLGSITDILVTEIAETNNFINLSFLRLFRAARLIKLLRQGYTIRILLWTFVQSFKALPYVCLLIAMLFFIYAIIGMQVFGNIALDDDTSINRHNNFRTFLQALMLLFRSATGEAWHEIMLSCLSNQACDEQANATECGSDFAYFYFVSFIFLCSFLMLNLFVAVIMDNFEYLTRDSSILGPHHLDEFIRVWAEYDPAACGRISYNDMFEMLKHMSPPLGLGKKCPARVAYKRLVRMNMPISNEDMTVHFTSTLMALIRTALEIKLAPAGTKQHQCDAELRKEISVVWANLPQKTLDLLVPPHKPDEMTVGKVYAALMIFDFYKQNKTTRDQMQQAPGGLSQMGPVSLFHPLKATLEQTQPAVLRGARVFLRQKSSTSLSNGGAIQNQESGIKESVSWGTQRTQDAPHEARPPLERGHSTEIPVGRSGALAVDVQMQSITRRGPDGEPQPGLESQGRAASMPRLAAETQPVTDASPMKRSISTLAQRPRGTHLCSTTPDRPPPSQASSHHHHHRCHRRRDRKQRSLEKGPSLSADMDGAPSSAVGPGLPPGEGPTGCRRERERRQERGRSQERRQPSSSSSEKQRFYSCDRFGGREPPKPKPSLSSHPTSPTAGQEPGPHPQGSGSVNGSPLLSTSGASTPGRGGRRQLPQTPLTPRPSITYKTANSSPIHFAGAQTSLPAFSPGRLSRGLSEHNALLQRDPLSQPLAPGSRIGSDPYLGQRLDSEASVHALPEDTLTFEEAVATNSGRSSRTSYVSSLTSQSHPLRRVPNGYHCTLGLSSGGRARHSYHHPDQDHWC
Format: cell-based
From the text: In the process, the Ca^2+ influx is quantified in the FLIPR assay with the aid of a Ca^2+-sensitive dye (type Fluo-4, Molecular Probes Europe BV, Leiden, the Netherlands) in a fluorescent imaging plate reader (FLIPR 3, Molecular Devices, Sunnyvale, USA), as described hereinafter.
Human CaV2.2 channels were stably expressed in HEK293 cells together with alpha2-delta and beta subunits of voltage gated calcium channels. In addition, an inwardly rectifying potassium channel (Kir2.3) was stably expressed in these cells to augment control of the cell membrane potential by the concentration of extracellular potassium ions. Raise of the extracellular potassium concentration leads to depolarization of the membrane potential and thus regulates the voltage dependent state of CaV2.2 channels. For preparation, cells were seeded in black poly-D-lysine coated 96-well plates (Becton Dickinson, Biocoat 4640) in 100 μL medium [500 mL DMEM/F-12 plus Glutamax (Invitrogen 31331-093) plus 5.5 mL MEM NEAA 100× (Invitrogen 11140-035) plus 50 mL FBS decomplemented (Invitrogen 10270-106) plus 200 μg/mL Geneticin (Invitrogen 10131-027) plus 50 μg/mL Hygromycin B (Invitrogen 10687-010) plus 2 μg/mL Blasticidin (anti-bl5b Invivo-Gen) plus 0.2 μg/mL Puromycin (A 11138-03)] at a cell density of 30.000 cells per well. Plates were incubated at 37° C. (5% CO2) for 20 to 23 h. On the day of experiment medium was discarded and cells were loaded with Fluo 4 by addition of 100 μL of basic assay buffer (10 mM HEPES, 1 mM KCl, 149 mM NaCl, 0.8 mM CaCl2, 1.7 mM MgCl2, 10 mM Glucose, 0.1% BSA. pH 7.4) containing 2 μM Fluo 4 (Molecular Probes; F-14201), 0.01% pluronic acid (Molecular Probes; P-6866) and 2.5 mM probenecid (Molecular Probes; P36400). Cells were incubated in the dark at 25° C. for 60 min. Then dye containing buffer was discarded and 100 μL basic (1 mM KCl) or alternative (30 mM KCl) assay buffer was added. The alternative assay buffer contained altered concentrations of KCl (30 mM) and NaCl (120 mM) and was used in order to promote the inactivated channel state. After that 25 μL of basic or alternative assay buffer with or without test compound were added and cells were incubated again in the dark at 25° C. for 15 min. Fluorescence intensity was measured on a FLIPR 3 instrument (Molecular Devices Corp., Sunnyvale, Calif.) with excitation at 480 nm and emission at 535 nm. After continuously reading fluorescence for 30 sec, 50 μL of basic assay buffer containing 210 mM KCl (NaCl omitted) were added for depolarization. Peak fluorescent signal intensity was determined and the amplitude of the peak signal, normalized to base line, was used to measure channel inhibition by test compounds.

| Structure (SMILES) | Activity Category: %-Inhib (CaV2.2) @3 μM @30 mM KCl |
| --- | --- |
| CC1(S(=O)(=O)c2cccc(C(F)(F)F)c2)CCOC(COc2ccc(S(C)(=O)=O)c(F)c2)C1 (single isomer, unassigned) [SC-151, 2-[(3-Fluoro-4-methylsulfonyl-phenoxy)-methyl]-4-methyl-4-[[3-(trifluoromethyl)phenyl]sulfonyl]-tetrahydro-pyran] | A (%-Inhibition >95%) |
| CC1(S(=O)(=O)c2cccc(C(F)(F)F)c2)COC(c2ccc(Cl)cc2)C1 (stereo not drawn) [SC-101, 2-(4-Chlorophenyl)-4-methyl-4-[[3-(trifluoromethyl)phenyl]sulfonyl]-tetrahydro-furan] | A (%-Inhibition >95%) |
| CC1(S(=O)(=O)c2cccc(C(F)(F)F)c2)COC(c2ccc(Cl)cc2)C1 (stereo not drawn) [SC-102, 2-(4-Chlorophenyl)-4-methyl-4-[[3-(trifluoromethyl)phenyl]sulfonyl]-tetrahydro-furan] | B (%-Inhibition >75% up to ≦95%) |
| CC1(S(=O)(=O)c2cccc(C(F)(F)F)c2)COC(c2ccc(Cl)cc2)C1 (stereo not drawn) [SC-103, 2-(4-Chlorophenyl)-4-methyl-4-[[3-(trifluoromethyl)phenyl]sulfonyl]-tetrahydro-furan] | A (%-Inhibition >95%) |
| CC1(S(=O)(=O)c2cccc(C(F)(F)F)n2)CCOC(c2ccc(Cl)cc2)C1 (stereo not drawn) [SC-105, 2-[[2-(4-Chlorophenyl)-4-methyl-tetrahydro-pyran-4-yl]sulfonyl]-6-(trifluoromethyl)-pyridine] | A (%-Inhibition >95%) |
| CC1(S(=O)(=O)c2cccc(C(F)(F)F)n2)CCOC(c2ccc(Cl)cc2)C1 (stereo not drawn) [SC-106, 2-[[2-(4-Chlorophenyl)-4-methyl-tetrahydro-pyran-4-yl]sulfonyl]-6-(trifluoromethyl)-pyridine] | B (%-Inhibition >75% up to ≦95%) |
| CC1(S(=O)(=O)c2cccc(C(F)(F)F)n2)CCOC(c2ccc(Cl)cc2)C1 (stereo not drawn) [SC-107, 2-[[2-(4-Chlorophenyl)-4-methyl-tetrahydro-pyran-4-yl]sulfonyl]-6-(trifluoromethyl)-pyridine] | B (%-Inhibition >75% up to ≦95%) |
| CCc1ccc(C(F)(F)F)cc1S(=O)(=O)C1CCOC(c2ccc(Cl)cc2)C1 (stereo not drawn) [SC-110, 2-(4-Chlorophenyl)-4-[[2-ethyl-5-(trifluoromethyl)-phenyl]sulfonyl]-tetrahydro-pyran] | B (%-Inhibition >75% up to ≦95%) |
| CCc1ccc(C(F)(F)F)cc1S(=O)(=O)C1CCOC(c2ccc(Cl)cc2)C1 (stereo not drawn) [SC-111, 2-(4-Chlorophenyl)-4-[[2-ethyl-5-(trifluoromethyl)-phenyl]sulfonyl]-tetrahydro-pyran] | C (%-Inhibition >40% up to ≦75%) |
| CC1(S(=O)(=O)c2cccc(C(F)(F)F)c2)CCOC(c2ccc(S(C)(=O)=O)cc2)C1 (stereo not drawn) [SC-113, 4-Methyl-2-(4-methylsulfonyl-phenyl)-4-[[3-(trifluoromethyl)phenyl]sulfonyl]-tetrahydro-pyran] | B (%-Inhibition >75% up to ≦95%) |
| CC1(S(=O)(=O)c2cccc(C(F)(F)F)c2)CCOC(c2ccc(Cl)cc2S(C)(=O)=O)C1 (stereo not drawn) [SC-115, 2-(4-Chloro-2-methylsulfonyl-phenyl)-4-methyl-4-[[3-(trifluoromethyl)phenyl]sulfonyl]-tetrahydro-pyran] | A (%-Inhibition >95%) |
| CC1(c2ccc(Cl)cc2)CC(S(=O)(=O)c2cccc(C(F)(F)F)c2)CCO1 (stereo not drawn) [SC-141, 2-(4-Chlorophenyl)-2-methyl-4-[[3-(trifluoromethyl)phenyl]sulfonyl]-tetrahydro-pyran] | A (%-Inhibition >95%) |
| CC1(S(=O)(=O)c2cccc(C(F)(F)F)c2)CCOC(c2ccc(S(C)(=O)=O)c(F)c2)C1 (stereo not drawn) [SC-144, 2-(3-Fluoro-4-methylsulfonyl-phenyl)-4-methyl-4-[[3-(trifluoromethyl)phenyl]sulfonyl]-tetrahydro-pyran] | A (%-Inhibition >95%) |
| CC1(S(=O)(=O)c2cccc(C(F)(F)F)c2)CCOC(c2cc(F)ccc2S(C)(=O)=O)C1 (stereo not drawn) [SC-204, 2-(5-Fluoro-2-methylsulfonyl-phenyl)-4-methyl-4-[[3-(trifluoromethyl)phenyl]sulfonyl]-tetrahydro-pyran] | A (%-Inhibition >95%) |

Same assay, conditions: HEK293, 3 μM test compound, 30 mM KCl assay buffer (inactivated channel state), HEK293 cells; read-out: Activity Category: %-Inhib (CaV2.2) @3 μM @30 mM KCl

| Structure (SMILES) | inhibition at 3 µM [%] |
| --- | --- |
| CC1(S(=O)(=O)c2cccc(C(F)(F)F)c2)COC(c2ccc(Cl)cc2)C1 (stereo not drawn) [SC-100, 2-(4-Chlorophenyl)-4-methyl-4-[[3-(trifluoromethyl)phenyl]sulfonyl]-tetrahydro-furan] | 75 to 95 |
| CC1(S(=O)(=O)c2cccc(C(F)(F)F)n2)CCOC(c2ccc(Cl)cc2)C1 (stereo not drawn) [SC-104, 2-[[2-(4-Chlorophenyl)-4-methyl-tetrahydro-pyran-4-yl]sulfonyl]-6-(trifluoromethyl)-pyridine] | 75 to 95 |
| Cc1ccc(C(F)(F)F)cc1S(=O)(=O)C1CCOC(c2ccc(Cl)cc2)C1 (stereo not drawn) [SC-108, 2-(4-Chlorophenyl)-4-((2-methyl-5-(trifluoromethyl)phenyl)sulfonyl)tetrahydro-2H-pyran] | 75 to 95 |
| CC1(S(=O)(=O)c2cccc(C(F)(F)F)c2)CCOC(c2ccc(S(C)(=O)=O)cc2)C1 (stereo not drawn) [SC-112, 4-Methyl-2-(4-methylsulfonyl-phenyl)-4-[[3-(trifluoromethyl)phenyl]sulfonyl]-tetrahydro-pyran] | > 95 |
| CC1(S(=O)(=O)c2cccc(C(F)(F)F)c2)CCOC(c2ccc(Cl)cc2S(C)(=O)=O)C1 (stereo not drawn) [SC-114, 2-(4-Chloro-2-methylsulfonyl-phenyl)-4-methyl-4-[[3-(trifluoromethyl)phenyl]sulfonyl]-tetrahydro-pyran] | 75 to 95 |
| CC(C)c1ccc(C(F)(F)F)cc1S(=O)(=O)C1CCOC(c2ccc(Cl)cc2)C1 (stereo not drawn) [SC-118, 2-(4-Chlorophenyl)-4-[[2-isopropyl-5-(trifluoromethyl)-phenyl]sulfonyl]-tetrahydro-pyran] | 40 to 75 |
| CC1(S(=O)(=O)c2cccc(C(F)(F)F)c2)CCOCC1c1ccc(Cl)cc1 (stereo not drawn) [SC-120, 3-(4-Chlorophenyl)-4-methyl-4-[[3-(trifluoromethyl)phenyl]sulfonyl]-tetrahydro-pyran] | 75 to 95 |
| CC1(c2ccc(Cl)cc2)CC(S(=O)(=O)c2cccc(C(F)(F)F)c2)CCO1 (stereo not drawn) [SC-140, 2-(4-Chlorophenyl)-2-methyl-4-[[3-(trifluoromethyl)phenyl]sulfonyl]-tetrahydro-pyran] | 75 to 95 |
| Cc1ccc(S(C)(=O)=O)cc1C1CC(C)(S(=O)(=O)c2cccc(C(F)(F)F)c2)CCO1 (stereo not drawn) [SC-200, 4-Methyl-2-(2-methyl-5-methylsulfonyl-phenyl)-4-[[3-(trifluoromethyl)phenyl]sulfonyl]-tetrahydro-pyran] | 75 to 95 |
| CC1(S(=O)(=O)c2cccc(C(F)(F)F)c2)CCOC(c2cc(C(F)(F)F)cc(S(C)(=O)=O)c2)C1 (stereo not drawn) [SC-202, 4-Methyl-2-[3-methylsulfonyl-5-(trifluoromethyl)-phenyl]-4-[[3-(trifluoromethyl)phenyl]sulfonyl]-tetrahydro-pyran] | > 95 |
| CC1(S(=O)(=O)c2cccc(C(F)(F)F)c2)CCOC(c2cc(F)ccc2S(C)(=O)=O)C1 (stereo not drawn) [SC-205, 2-(5-Fluoro-2-methylsulfonyl-phenyl)-4-methyl-4-[[3-(trifluoromethyl)phenyl]sulfonyl]-tetrahydro-pyran] | 75 to 95 |
| Cc1cc(C2CC(C)(S(=O)(=O)c3cccc(C(F)(F)F)c3)CCO2)ccc1S(C)(=O)=O (stereo not drawn) [SC-206, 4-Methyl-2-(3-methyl-4-methylsulfonyl-phenyl)-4-[[3-(trifluoromethyl)phenyl]sulfonyl]-tetrahydro-pyran] | > 95 |
| CC1(S(=O)(=O)c2cccc(C(F)(F)F)c2)CCOC(c2ccc(S(C)(=O)=O)c(F)c2)C1 (stereo not drawn) [SC-208, 2-(3-Fluoro-4-methylsulfonyl-phenyl)-4-methyl-4-[[3-(trifluoromethyl)phenyl]sulfonyl]-tetrahydro-pyran] | > 95 |
